Publication PMC9412534, “Diindolylmethane Derivatives: New Selective Blockers for T-Type Calcium Channels” (Membranes, 2022)
Where two headings read alike, the source gives them in different places.

Columns and labels:
[1] = target: T1, human CaV3.1 (Homo sapiens, UniProt O43497); test: T-type calcium channel window current FLIPR assay, CaV3.1; assay type: cell-based; details: n = 3, read-out: IC50 CaV3.1 (LVA CaVs)
T1 construct: expressed in transfected cells; host or cells: HEK 293 T cells, transient transfection (FuGENE HD)
Procedure: (§1) The human embryonic kidney 293 (HEK 293) cell lines (from Emmanuel Bourinet, Montpellier, France) stably expressing CaV3.2 or CaV3.3 were cultured under 5% carbon dioxide at 37 °C in Dulbecco’s Modified Eagle Medium (DMEM) Glutamax (Gibco, Life Technologies, Carlsbad, CA, USA) supplemented with 10% (v/v) fetal bovine serum (FBS), 100 U/mL penicillin, 100 μg/mL streptomycin (Gibco, Life Technologies, Carlsbad, CA, USA), and 750 μg/mL geneticin (G418) (Gibco, Life Technologies). The Chinese Hamster Ovary (CHO) cell lines (Emmanuel Bourinet, Montpellier, France) expressing CaV3.1 were cultured under 5% carbon dioxide at 37 °C in Alpha Minimum Essential Media (MEM) Glutamax (Gibco, Life Technologies), supplemented with 10% (v/v) fetal bovine serum (FBS) and 300 μg/mL geneticin (G418) (Gibco, Life Technologies). The human neuroblastoma SH-SY5Y cells (Victor Diaz, Goettingen, Germany) were cultured under 5% carbon dioxide at 37 °C in RPMI 1640 antibiotic-free medium (Invitrogen, Carlsbad, CA, USA), supplemented with 15% FBS and 2 mM GlutaMAX™ (Invitrogen). D-PBS (Gibco, Life Technologies) was used to wash the cells, and 0.25% Trypsin-EDTA (Gibco, Life Technologies) was used to detach cells from the flask surface. They were split in a ratio of 1:5 (ideally 1000 cells/cm^2) when they reached 70–80% confluence (every 2–3 days). Transiently transfected CaV3.1 HEK293 T cells were used in FLIPR Assays. HEK 293 T cells were cultured under 5% carbon dioxide at 37 °C in DMEM supplemented with 10% (v/v) FBS. D-PBS was used to wash the cells, and 0.25% Trypsin-EDTA was used to detach cells from the flask surface. The cells were split and seeded at 6 million cells per T175 flask, to reach 70–80% confluence after 24 h. The next day, 12 μg DNA of human CaV3.1 was incubated in 900 μL serum-free DMEM with 36 μL FuGENE HD transfection reagent (Promega Corporation, Madison, WI, USA) (1:3 DNA/Fugene ratio) for 20 min, and then the mixture was added into the cell flask slowly, drop by drop. After the transfection, the cells were cultured under 5% carbon dioxide at 37 °C for 24 h and then moved to a 28 °C incubator.
(§2) HEK 293 cells stably expressing CaV3.2 or CaV3.3 were seeded into 384-well black wall clear bottom plates (Corning) at a density of 30,000 cells per well. Transiently transfected CaV3.1HEK293 T cells were seeded into 384-well black wall clear bottom plates at a density of 60,000 cells per well. Once the cells reached 90–95% confluence after 24 h, the media were removed from the wells and replaced with 20 μL of 10% calcium 4 dye (Molecular Devices, Sunnyvale, CA, USA) in HBSS-HEPES (containing 5 mM KCl, 10 mM HEPES, 140 mM NaCl, 10 mM glucose, and 0.5 mM CaCl2, pH 7.4) with 0.1% bovine serum albumin (BSA). The cells were incubated for 30 min at 37 °C in the presence of 5% carbon dioxide. Each well on the reagent plates for the first addition contained 15 μL different concentrations of compounds dissolved in HBSS-HEPES containing 0.1% BSA and <0.5% DMSO and was incubated for 20 min after loaded. Positive and negative controls contained 15 μL of HBSS-HEPES (0.1% BSA) alone. The plates were placed in the FLIPR^TETRA (Molecular Devices, Sunnyvale, CA, USA) programmed to measure maximum fluorescence intensity following a second addition of the agonist 5 mM CaCl2. The fluorescence readings were recorded and converted as described previously, and HBSS-HEPES (0.1% BSA) was used in the second addition as a negative control.

[2] = target: CaV3.2 (Homo sapiens, UniProt O95180); test: T-type calcium channel window current FLIPR assay, CaV3.2; assay type: cell-based
Chain of CaV3.2 (O95180 whole entry): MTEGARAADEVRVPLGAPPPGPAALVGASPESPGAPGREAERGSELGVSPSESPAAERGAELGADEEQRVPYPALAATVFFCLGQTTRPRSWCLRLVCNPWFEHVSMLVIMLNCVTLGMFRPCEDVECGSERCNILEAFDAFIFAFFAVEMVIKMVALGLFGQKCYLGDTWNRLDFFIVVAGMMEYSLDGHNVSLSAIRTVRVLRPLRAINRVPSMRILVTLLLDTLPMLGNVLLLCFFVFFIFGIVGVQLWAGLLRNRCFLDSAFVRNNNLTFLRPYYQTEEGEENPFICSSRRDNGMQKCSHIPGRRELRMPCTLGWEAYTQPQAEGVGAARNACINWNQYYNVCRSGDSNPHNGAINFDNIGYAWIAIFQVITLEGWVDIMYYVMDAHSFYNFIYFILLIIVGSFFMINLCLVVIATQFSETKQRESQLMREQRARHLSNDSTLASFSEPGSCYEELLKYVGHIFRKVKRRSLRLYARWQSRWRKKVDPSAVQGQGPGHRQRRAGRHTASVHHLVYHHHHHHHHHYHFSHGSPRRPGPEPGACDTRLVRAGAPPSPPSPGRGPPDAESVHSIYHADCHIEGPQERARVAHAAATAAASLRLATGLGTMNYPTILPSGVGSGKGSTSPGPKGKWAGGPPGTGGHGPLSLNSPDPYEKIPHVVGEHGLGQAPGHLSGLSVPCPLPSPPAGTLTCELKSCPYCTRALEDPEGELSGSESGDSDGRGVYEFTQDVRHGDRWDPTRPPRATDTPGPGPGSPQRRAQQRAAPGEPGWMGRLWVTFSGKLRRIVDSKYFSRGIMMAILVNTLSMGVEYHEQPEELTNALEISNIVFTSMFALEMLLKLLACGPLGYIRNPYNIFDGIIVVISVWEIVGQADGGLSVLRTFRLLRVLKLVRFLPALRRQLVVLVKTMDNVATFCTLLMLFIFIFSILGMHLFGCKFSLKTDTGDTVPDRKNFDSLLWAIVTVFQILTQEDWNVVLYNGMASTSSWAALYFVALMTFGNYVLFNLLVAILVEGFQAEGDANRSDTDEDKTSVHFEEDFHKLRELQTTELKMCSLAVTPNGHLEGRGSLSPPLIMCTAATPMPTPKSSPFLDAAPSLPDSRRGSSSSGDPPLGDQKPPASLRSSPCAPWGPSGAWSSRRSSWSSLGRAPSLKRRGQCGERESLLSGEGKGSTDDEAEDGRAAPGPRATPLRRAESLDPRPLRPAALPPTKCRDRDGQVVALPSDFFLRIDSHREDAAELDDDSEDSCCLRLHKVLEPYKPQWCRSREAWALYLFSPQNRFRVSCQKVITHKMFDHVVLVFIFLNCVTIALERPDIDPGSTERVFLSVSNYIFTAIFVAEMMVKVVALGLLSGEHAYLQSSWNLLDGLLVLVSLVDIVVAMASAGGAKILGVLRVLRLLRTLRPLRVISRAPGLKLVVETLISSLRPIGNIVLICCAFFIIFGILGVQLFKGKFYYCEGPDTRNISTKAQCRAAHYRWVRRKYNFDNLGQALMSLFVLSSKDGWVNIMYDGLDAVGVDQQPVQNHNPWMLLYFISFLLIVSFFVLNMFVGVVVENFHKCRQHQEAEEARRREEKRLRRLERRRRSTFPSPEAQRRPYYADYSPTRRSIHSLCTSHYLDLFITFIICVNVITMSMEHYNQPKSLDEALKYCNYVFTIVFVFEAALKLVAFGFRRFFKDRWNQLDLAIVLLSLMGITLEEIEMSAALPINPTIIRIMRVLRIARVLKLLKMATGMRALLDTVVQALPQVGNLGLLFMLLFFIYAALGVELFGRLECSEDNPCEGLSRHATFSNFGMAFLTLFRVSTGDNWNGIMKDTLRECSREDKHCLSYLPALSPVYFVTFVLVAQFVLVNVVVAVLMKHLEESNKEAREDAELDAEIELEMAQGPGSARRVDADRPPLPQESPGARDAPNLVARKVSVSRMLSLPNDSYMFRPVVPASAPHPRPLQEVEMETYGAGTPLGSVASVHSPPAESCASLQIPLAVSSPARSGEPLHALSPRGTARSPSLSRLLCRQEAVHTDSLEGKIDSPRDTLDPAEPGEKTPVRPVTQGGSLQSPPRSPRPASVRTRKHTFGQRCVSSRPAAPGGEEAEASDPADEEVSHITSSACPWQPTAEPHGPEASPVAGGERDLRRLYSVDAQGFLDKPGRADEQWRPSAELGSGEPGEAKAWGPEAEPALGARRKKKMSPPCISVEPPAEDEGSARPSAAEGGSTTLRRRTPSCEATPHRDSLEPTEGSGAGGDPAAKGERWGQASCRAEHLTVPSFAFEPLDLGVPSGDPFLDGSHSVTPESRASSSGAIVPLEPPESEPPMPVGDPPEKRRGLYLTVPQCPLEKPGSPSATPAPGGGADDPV
Procedure: as §1, §2

[3] = target: CaV3.3 (Homo sapiens, UniProt Q9P0X4); test: T-type calcium channel window current FLIPR assay, CaV3.3; assay type: cell-based
Chain of CaV3.3 (Q9P0X4 whole entry): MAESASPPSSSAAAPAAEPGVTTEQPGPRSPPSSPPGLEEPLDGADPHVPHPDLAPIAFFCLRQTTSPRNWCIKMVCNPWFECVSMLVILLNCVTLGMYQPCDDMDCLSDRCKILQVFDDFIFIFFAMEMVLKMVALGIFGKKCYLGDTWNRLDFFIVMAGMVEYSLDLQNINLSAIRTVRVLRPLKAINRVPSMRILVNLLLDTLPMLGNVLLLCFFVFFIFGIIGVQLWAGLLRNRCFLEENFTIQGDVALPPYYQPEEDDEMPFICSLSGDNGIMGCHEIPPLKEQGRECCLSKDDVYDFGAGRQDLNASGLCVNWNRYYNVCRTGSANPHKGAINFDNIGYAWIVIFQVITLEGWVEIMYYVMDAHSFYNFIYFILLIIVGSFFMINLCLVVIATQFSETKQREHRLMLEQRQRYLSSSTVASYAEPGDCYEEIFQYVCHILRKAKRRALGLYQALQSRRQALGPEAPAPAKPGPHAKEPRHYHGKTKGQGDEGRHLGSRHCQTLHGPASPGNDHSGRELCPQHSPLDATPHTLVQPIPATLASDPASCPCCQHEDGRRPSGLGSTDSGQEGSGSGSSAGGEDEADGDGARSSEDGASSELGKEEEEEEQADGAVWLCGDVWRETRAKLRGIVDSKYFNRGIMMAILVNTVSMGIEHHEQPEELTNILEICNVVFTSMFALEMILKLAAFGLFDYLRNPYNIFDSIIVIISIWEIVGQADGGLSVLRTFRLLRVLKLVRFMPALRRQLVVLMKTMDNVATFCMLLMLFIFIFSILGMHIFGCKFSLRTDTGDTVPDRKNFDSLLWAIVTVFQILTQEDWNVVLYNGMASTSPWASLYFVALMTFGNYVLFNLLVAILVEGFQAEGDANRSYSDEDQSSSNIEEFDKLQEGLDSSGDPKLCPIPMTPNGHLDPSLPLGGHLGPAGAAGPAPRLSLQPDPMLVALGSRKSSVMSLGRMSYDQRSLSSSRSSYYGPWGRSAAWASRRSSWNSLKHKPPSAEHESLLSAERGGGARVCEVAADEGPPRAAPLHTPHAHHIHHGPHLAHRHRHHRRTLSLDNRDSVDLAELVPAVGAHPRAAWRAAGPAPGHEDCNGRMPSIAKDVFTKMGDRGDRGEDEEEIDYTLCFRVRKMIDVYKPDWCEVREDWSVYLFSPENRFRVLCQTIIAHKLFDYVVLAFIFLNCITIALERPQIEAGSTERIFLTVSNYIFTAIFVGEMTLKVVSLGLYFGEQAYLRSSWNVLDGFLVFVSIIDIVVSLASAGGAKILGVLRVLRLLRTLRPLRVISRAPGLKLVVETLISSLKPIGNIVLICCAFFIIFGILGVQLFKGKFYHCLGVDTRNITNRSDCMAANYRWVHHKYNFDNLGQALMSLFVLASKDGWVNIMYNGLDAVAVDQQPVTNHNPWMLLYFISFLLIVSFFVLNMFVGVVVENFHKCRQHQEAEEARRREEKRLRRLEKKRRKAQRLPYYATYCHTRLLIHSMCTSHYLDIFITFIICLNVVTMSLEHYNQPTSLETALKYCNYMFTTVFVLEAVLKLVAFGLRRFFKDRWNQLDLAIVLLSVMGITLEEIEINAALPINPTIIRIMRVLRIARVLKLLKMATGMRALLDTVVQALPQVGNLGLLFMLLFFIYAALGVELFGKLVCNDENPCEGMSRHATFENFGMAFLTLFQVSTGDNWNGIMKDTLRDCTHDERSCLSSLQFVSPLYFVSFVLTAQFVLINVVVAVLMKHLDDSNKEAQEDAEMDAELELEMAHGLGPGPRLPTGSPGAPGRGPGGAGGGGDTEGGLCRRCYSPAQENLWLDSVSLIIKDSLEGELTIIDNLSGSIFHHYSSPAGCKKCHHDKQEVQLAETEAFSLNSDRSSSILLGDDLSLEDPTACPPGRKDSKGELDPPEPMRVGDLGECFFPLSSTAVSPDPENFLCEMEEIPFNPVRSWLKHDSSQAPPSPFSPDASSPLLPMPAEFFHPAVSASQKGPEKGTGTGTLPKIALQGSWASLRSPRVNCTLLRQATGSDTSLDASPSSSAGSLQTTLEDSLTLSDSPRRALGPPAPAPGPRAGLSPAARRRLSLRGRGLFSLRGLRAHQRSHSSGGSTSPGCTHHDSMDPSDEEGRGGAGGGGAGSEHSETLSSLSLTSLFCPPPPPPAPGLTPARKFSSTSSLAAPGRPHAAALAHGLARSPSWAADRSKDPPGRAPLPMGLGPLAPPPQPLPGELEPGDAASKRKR
Procedure: as §1, §2

[4] = system: HT-29 cells; test: Cell viability MTT assay, HT-29; assay type: cell-based, human; details: for viability at 50 µM: HT-29, 50 µM, n = 4; for IC50: n = 3; for preferential anti-proliferative activity on HT-29: versus MCF-7, T-47D, A549
Procedure: Human breast cancer cell line MCF-7 and T-47D, lung cancer cell line A549, and colon cancer cell line HT-29 were cultured under 5% carbon dioxide at 37 °C in DMEM Glutamax (Gibco, Life Technologies) supplemented with 10% (v/v) FBS. They were split in a ratio of 1:3–1:6 (ideally 2–4 × 10,000 cells/cm^2) when they reached 70–80% confluence using 0.25% Trypsin-EDTA. For cell viability MTT assay, cells were seeded into 96-well clear bottom culture plates (Corning, Lowell, MA, USA) at a density of 5 × 10^3 cells/well and settled at 37 °C for 24 h.
Seeded cells were treated with various concentrations of compounds for desired time period (24, 48 and 72 h). After the treatments, the media were removed from each well, and replaced with 25 μL of serum-free media and 25 μL of MTT Reagent (cat. no., ab211091; Abcam, Cambridge, MA, USA). The plate was then incubated at 37 °C for 3 h, and 75 μL of MTT Solvent (cat. no., ab211091; Abcam) was added into each well after incubation. The absorbance was evaluated at 590 nm. Cell-wells treated with 0.1% DMSO were used as positive control and no cell-wells were used as background control.

[5] = FLIPR window current, n = 3, read-out: IC50 CaV3.2 (LVA CaVs)
[6] = FLIPR, one separate experiment in quadruplicate (n = 4), read-out: IC50 of representative concentration-response curve, CaV3.2 window current
[7] = FLIPR window current, n = 3, read-out: IC50 CaV3.3 (LVA CaVs)
[8] = FLIPR, one separate experiment in quadruplicate (n = 4), read-out: IC50 of representative concentration-response curve, CaV3.3 window current
[9] = Homo sapiens, HT-29, 72 h, 72 h treatment

c1ccc2c(Cc3c[nH]c4ccccc34)c[nH]c2c1 [DIM, 3,3′-diindolylmethane, reference compound]
IC50 [1]: > 200 µM
IC50 [2, 5]: 52.2 ± 3.8 µM
IC50 [2, 6]: 54.7 µM
CaV3.3 window current potency better than at CaV3.1 and CaV3.2 ([3]; FLIPR): ~ 25 fold
CaV3.3 window current potency better than potency at HVA CaVs ([3]; FLIPR): > 27 fold
IC50 [3, 7]: 2.09 ± 0.43 µM
IC50 [3, 8]: 2.77 µM
viability at 50 µM ([4]; Homo sapiens, 72 h treatment): 25.3 ± 2.44%
IC50 [4, 9]: 33 µM

O=C(c1c[nH]c2ccccc12)c1c[nH]c2ccccc12 [DIM-one, 3,3′-diindolylmethanone]
IC50 [1]: 158 ± 11.1 µM
reduced potency for CaV3.2 window current compared to DIM ([2]; FLIPR): ~ 1.4 fold
IC50 [2, 5]: 73.9 ± 2.48 µM
IC50 [2, 6]: 74 µM
reduced potency for CaV3.3 window current compared to DIM ([3]; FLIPR): 4.3 fold
IC50 [3, 7]: 9.07 ± 0.69 µM
IC50 [3, 8]: 8.18 µM
better antiproliferative effect on HT-29 cell viability than on the other three cancer cell lines ([4]; 72 h treatment): ≥ 2 fold
viability at 50 µM ([4]; Homo sapiens, 72 h treatment): 5.95 ± 0.19%
IC50 [4, 9]: 20 µM
preferential anti-proliferative activity on HT-29 [4]: preferential anti-proliferative activity

O=C(c1c[nH]c2cc(Br)ccc12)c1c[nH]c2cc(Br)ccc12 [IV]
IC50 [1]: 53.5 ± 2 µM
IC50 [2, 5]: 57.3 ± 3.38 µM
IC50 [3, 7]: 62.5 ± 4.1 µM
better antiproliferative effect on HT-29 cell viability than on the other three cancer cell lines ([4]; 72 h treatment): ~ 3 fold
improved potency on HT-29 cell viability compared with the other three compounds ([4]; 72 h treatment): > 10 fold
IC50 ([4]; 72 h treatment): 1.2 µM
viability at 50 µM ([4]; Homo sapiens, 72 h treatment): 0.85 ± 0.21%
IC50 ([4]; Homo sapiens, HT-29, 24 h, 24 h treatment): 5.9 µM
IC50 ([4]; Homo sapiens, HT-29, 48 h, 48 h treatment): 1.6 µM
IC50 [4, 9]: 1 µM
preferential anti-proliferative activity on HT-29 [4]: preferential anti-proliferative activity

O=C(c1cn(Cc2ccccc2)c2ccccc12)c1cn(Cc2ccccc2)c2ccccc12 [IX, bis(1-benzyl-1H-indol-3-yl)methanone]
IC50 [1]: 35.1 ± 1.05 µM
IC50 ([2]; IC50 CaV3.2 (LVA CaVs), FLIPR window current, n = 3): 3.05 ± 0.51 µM
IC50 ([2]; IC50 of representative concentration-response curve, CaV3.2 window current, FLIPR, one separate experiment in quadruplicate (n = 4)): 3.28 µM
less active at HVA CaVs than at CaV3.2 and CaV3.3 ([3]; FLIPR): > 7 fold
IC50 ([3]; IC50 CaV3.3 (LVA CaVs), FLIPR window current, n = 3): 6.68 ± 0.79 µM
IC50 ([3]; IC50 of representative concentration-response curve, CaV3.3 window current, FLIPR, one separate experiment in quadruplicate (n = 4)): 5.27 µM
